In ChEMBL document CHEMBL4340508, “Synthesis and evaluation of tetrahydroisoquinoline-benzimidazole hybrids as multifunctional agents for the treatment of Alzheimer's disease” (Eur J Med Chem, 2019):
Calls of active or inactive are those of the source. No cut-off for these calls is given here.

Assays:
[1] = biological target: Cholinesterase (Homo sapiens) (UniProt P06276); assay: Inhibition of human serum BuChE at 10 uM using butyrylthiocholine chloride as substrate preincubated for 15 mins followed by substrate addition and measured at 1 min time interval by Ellman's method relative to control
[2] = tested on: BV-2; assay: Antineuroinflammatory activity in mouse BV2 cells assessed as inhibition of LPS-induced nitric oxide production pretreated for 30 mins followed by LPS-stimulation for 24 hrs by Griess assay; format: functional, cell-based
[3] = biological target: Acetylcholinesterase (Homo sapiens) (UniProt P22303); assay: Inhibition of human erythrocyte AChE at 10 uM using acetylthiocholine chloride as substrate preincubated for 15 mins followed by substrate addition and measured at 1 min time interval by Ellman's method relative to control
[4] = Permeability of the compound in PBS/EtOH at 100 ug/ml after 10 hrs by PAMPA-BBB assay; format: ADME; settings: read-out: permeability
[5] = tested on: HT-22; assay: Neuroprotective activity against glutamate-induced cytotoxicity in mouse HT22 cells assessed as cell viability at 5 uM measured after 24 hrs by MTT assay (reference value: 30%); format: functional; settings: HT-22, 24 h, read-out: Activity
[6] = biological target: Beta-secretase 1 (Homo sapiens, UniProt P56817); assay: Inhibition of recombinant human BACE1 preincubated with enzyme for 20 mins followed by addition of Rh-EVNLDAEFK-Quencher as substrate measured after 60 mins by FRET assay
[7] = tested on: BV-2; assay: Antineuroinflammatory activity in mouse BV2 cells assessed as decrease in LPS-induced secretion of IL-1beta incubated for 30 mins followed by LPS stimulation for 16 hrs by ELISA; format: functional, cell-based
[8] = tested on: BV-2; assay: Antineuroinflammatory activity in mouse BV2 cells assessed as decrease in LPS-induced IL-1beta expression incubated for 30 mins followed by LPS stimulation for 12 hrs by qPCR method; format: functional, cell-based
[9] = tested on: BV-2; assay: Antineuroinflammatory activity in mouse BV2 cells assessed as decrease in LPS-induced secretion of TNFalpha incubated for 30 mins followed by LPS stimulation for 16 hrs by ELISA; format: functional, cell-based
[10] = tested on: BV-2; assay: Neuroprotective activity against glutamate-induced cell damage in […] assessed as change in cell morphology at 5 uM measured after 24 hrs; format: functional, cell-based
[11] = tested on: HT-22; assay: Neuroprotective activity against glutamate-induced intracellular oxidative stress in mouse HT22 cells assessed as inhibition of ROS production at 5 uM measured after 12 hrs by DCFH-DA probe based fluorescence method relative to control; format: functional, cell-based
[12] = tested on: BV-2; assay: Antineuroinflammatory activity in mouse BV2 cells assessed as decrease in LPS-induced iNOS mRNA expression incubated for 30 mins followed by LPS stimulation for 12 hrs by qPCR method; format: functional, cell-based
[13] = tested on: BV-2; assay: Antineuroinflammatory activity in mouse BV2 cells assessed as decrease in LPS-induced TNFalpha expression incubated for 30 mins followed by LPS stimulation for 12 hrs by qPCR method; format: functional, cell-based
[14] = tested on: BV-2; assay: Antineuroinflammatory activity in mouse BV2 cells assessed as decrease in LPS-induced iNOS expression incubated for 30 mins followed by LPS stimulation for 16 hrs by Western blot analysis; format: functional, cell-based
[15] = tested on: HT-22; assay: Neuroprotective activity against glutamate-induced intracellular oxidative stress in mouse HT22 cells assessed as increase in GSH level at 5 uM measured after 12 hrs relative to control; format: functional, cell-based

Sequence of Beta-secretase 1 (P56817 whole entry): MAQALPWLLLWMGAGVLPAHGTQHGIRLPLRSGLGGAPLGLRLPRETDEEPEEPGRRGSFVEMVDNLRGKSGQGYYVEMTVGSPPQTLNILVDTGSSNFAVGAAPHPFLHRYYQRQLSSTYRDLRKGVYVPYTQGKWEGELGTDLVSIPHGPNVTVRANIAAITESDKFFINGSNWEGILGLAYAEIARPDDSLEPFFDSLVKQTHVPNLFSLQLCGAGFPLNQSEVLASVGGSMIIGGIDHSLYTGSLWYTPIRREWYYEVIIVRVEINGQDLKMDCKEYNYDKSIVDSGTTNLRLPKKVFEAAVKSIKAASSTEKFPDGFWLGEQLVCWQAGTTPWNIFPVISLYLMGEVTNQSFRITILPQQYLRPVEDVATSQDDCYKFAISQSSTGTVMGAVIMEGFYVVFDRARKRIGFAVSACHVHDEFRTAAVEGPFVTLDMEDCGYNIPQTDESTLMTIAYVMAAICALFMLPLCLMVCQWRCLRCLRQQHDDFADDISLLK
Sequence of Cholinesterase (Homo sapiens) (P06276 whole entry): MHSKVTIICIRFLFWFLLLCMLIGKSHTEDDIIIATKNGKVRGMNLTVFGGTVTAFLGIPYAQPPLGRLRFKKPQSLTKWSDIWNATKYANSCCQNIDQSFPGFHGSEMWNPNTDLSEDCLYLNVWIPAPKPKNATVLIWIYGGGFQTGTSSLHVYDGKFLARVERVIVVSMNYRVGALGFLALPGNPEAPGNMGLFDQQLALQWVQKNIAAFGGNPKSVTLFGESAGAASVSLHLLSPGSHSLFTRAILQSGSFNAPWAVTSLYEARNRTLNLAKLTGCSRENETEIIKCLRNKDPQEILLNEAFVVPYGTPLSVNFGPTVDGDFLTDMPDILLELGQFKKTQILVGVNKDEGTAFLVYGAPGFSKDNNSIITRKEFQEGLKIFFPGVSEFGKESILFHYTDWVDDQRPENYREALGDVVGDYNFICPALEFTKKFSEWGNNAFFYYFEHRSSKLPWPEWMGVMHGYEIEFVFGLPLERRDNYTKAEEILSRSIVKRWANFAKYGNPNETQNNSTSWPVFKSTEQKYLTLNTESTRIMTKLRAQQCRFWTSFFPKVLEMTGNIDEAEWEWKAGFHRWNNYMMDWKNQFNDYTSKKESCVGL
Sequence of Acetylcholinesterase (Homo sapiens) (P22303 whole entry): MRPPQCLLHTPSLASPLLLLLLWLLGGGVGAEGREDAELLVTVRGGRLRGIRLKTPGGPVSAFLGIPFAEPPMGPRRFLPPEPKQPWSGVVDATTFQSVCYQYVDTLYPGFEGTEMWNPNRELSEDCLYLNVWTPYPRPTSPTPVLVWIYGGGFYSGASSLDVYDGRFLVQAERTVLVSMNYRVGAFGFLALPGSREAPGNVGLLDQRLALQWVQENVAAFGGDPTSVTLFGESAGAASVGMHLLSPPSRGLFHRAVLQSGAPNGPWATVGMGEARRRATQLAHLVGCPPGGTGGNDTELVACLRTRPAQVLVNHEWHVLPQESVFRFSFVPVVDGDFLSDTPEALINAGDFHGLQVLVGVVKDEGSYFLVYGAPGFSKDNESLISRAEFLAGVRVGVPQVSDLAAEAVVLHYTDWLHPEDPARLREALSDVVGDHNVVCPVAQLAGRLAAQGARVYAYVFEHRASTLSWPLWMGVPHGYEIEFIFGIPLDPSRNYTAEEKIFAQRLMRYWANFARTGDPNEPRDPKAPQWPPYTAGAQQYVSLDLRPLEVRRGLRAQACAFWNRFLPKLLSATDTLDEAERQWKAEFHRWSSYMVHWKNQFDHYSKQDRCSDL

| SMILES | inhibition [1] | IC50 [2] | inhibition [3] | Papp at 10 h, 100 ug/ml [4] | viability at 5 µM [5] | also measured |
| --- | --- | --- | --- | --- | --- | --- |
| Oc1ccc2nc(-c3cccc(N4CCc5ccccc5C4)c3)[nH]c2c1 | 6.8% | 5.95 µM | 11.2% | 8.6 ×10⁻⁶ cm/s | – | – |
| Nc1cccc2nc(-c3cccc(N4CCc5ccccc5C4)c3)[nH]c12 | 25.9% | > 10 µM | 4.8% | 13 ×10⁻⁶ cm/s | 94.9% | – |
| Clc1cc2nc(-c3cccc(N4CCc5ccccc5C4)c3)[nH]c2cc1Cl | 3.7% | 7.93 µM | 16.2% | 9.9 ×10⁻⁶ cm/s | – | – |
| Cc1ccc2nc(-c3cccc(N4CCc5ccccc5C4)c3)[nH]c2c1 | 20.7% | 5.7 µM | 5% | 9.6 ×10⁻⁶ cm/s | – | – |
| FC(F)(F)c1ccc2nc(-c3cccc(N4CCc5ccccc5C4)c3)[nH]c2c1 | 11.3% | 7.72 µM | 11.9% | 8.7 ×10⁻⁶ cm/s | – | – |
| FC(F)(F)Oc1ccc2nc(-c3cccc(N4CCc5ccccc5C4)n3)[nH]c2c1 | 11.7% | 9.74 µM | 7.6% | 10 ×10⁻⁶ cm/s | 62.1% | IC50 [6]: 1.1 µM |
| COc1ccc2nc(-c3cccc(N4CCc5ccccc5C4)c3)[nH]c2c1 | 5.4% | 8.28 µM | 10.4% | 5.6 ×10⁻⁶ cm/s | – | – |
| c1cc(-c2nc3ccccc3[nH]2)cc(N2CCc3ccccc3C2)c1 | 18.3% | 6.08 µM | 6.3% | 8.5 ×10⁻⁶ cm/s | – | – |
| COc1ccc2nc(-c3cccc(N4CCc5ccccc5C4)n3)[nH]c2c1 | 35.6% | 5.07 µM | 4.5% | 16.8 ×10⁻⁶ cm/s | 91.8% | Activity [7]: Dose-dependent effect; Activity [8]: Dose-dependent effect; Activity [9]: Dose-dependent effect; Activity [10]: Active; inhibition [11]: Active; Activity [12]: Dose-dependent effect; Activity [13]: Dose-dependent effect; Activity [14]: Dose-dependent effect; Activity [15]: Active |
| Fc1ccc2nc(-c3cccc(N4CCc5ccccc5C4)c3)[nH]c2c1 | 17.1% | 5.42 µM | 9.5% | 12.6 ×10⁻⁶ cm/s | – | – |
| Clc1ccc2nc(-c3cccc(N4CCc5ccccc5C4)c3)[nH]c2c1 | 27.6% | > 10 µM | 3.4% | 4.9 ×10⁻⁶ cm/s | 67.6% | IC50 [6]: 1.3 µM |
| Fc1ccc2c(c1)CCN(c1cccc(-c3nc4ccc(F)cc4[nH]3)n1)C2 | 33.7% | 6.43 µM | 19.9% | 14 ×10⁻⁶ cm/s | 71.1% | – |
| COc1ccc2c(c1)CCN(c1cccc(-c3nc4ccc(OC)cc4[nH]3)n1)C2 | 9.7% | > 10 µM | 4.7% | 11.5 ×10⁻⁶ cm/s | – | – |
| COc1ccc2c(c1)CCN(c1cccc(-c3nc4ccc(OC)cc4[nH]3)c1)C2 | 0.3% | > 10 µM | 6% | 7.6 ×10⁻⁶ cm/s | 93.1% | – |
| FC(F)(F)c1ccc2nc(-c3cccc(N4CCc5ccccc5C4)n3)[nH]c2c1 | 18.6% | 9.33 µM | 20.4% | 5.4 ×10⁻⁶ cm/s | – | IC50 [6]: 3.6 µM |
| Fc1cc2nc(-c3cccc(N4CCc5ccccc5C4)n3)[nH]c2cc1F | 8.9% | 6.58 µM | 7.2% | 13.9 ×10⁻⁶ cm/s | – | – |
| Fc1ccc2nc(-c3cccc(N4CCc5ccccc5C4)n3)[nH]c2c1 | 24.2% | 5.7 µM | 6.6% | 14.5 ×10⁻⁶ cm/s | 67.8% | – |
| Oc1ccc2nc(-c3cccc(N4CCc5ccccc5C4)n3)[nH]c2c1 | 45.6% | 3.8 µM | 7.5% | 13.8 ×10⁻⁶ cm/s | 98.8% | – |
| Fc1cc2[nH]c(-c3cccc(N4CCc5ccccc5C4)c3)nc2cc1Cl | 0.5% | > 10 µM | 10.9% | 10.1 ×10⁻⁶ cm/s | 48.9% | – |
| CC(C)(C)c1ccc2nc(-c3cccc(N4CCc5ccccc5C4)n3)[nH]c2c1 | 3.8% | > 10 µM | 24.6% | – | – | – |
| c1cc(-c2nc3ccccc3[nH]2)nc(N2CCc3ccccc3C2)c1 | 23.2% | 7.33 µM | 10.1% | 15.9 ×10⁻⁶ cm/s | 80.3% | – |
| Clc1ccc2nc(-c3cccc(N4CCc5ccccc5C4)n3)[nH]c2c1 | 19.8% | 6.94 µM | 24.3% | 16.7 ×10⁻⁶ cm/s | – | IC50 [6]: 1.8 µM |
